The values below come from patent US20110190237A1, “Macrocyclic Prodrug Compounds Useful as Therapeutics” (NEXGENIX PHARMACEUTICALS, priority 2008, published 2011).

One series has as its system HCT116 (colon). The experiment in a line: Cell proliferation assay (ATPlite), HCT116. The series is classed as cell-based. The following applies: 4 days, read-out: Growth inhibition (IC50). (In general: In ATP-based viability assays light output follows the ATP content of the culture.)
The next series concerns A172(glioblastoma). The series can be described thus: Cell proliferation assay (ATPlite), A172. The series is classed as cell-based. The settings on record: 4 days, read-out: Growth inhibition (IC50). As for the experimental part:
(§1) Cell proliferation assays were performed in various oncology cell lines, including breast cancer (BT474 and MDA-MB468), leukemia (K562 CML and MV4;11 AML), colon (HCT116), prostate cancer (PC-3), Tarceva- and Iressa-resistant non-small cell lung cancer (NSCLC, […] and H1975), gastric cancer (N87) as well as glioblastoma (A172) cell lines. […] Cell viability at day 4 was measured by the amount of ATP present in viable cells using ATPlite assay kit according to manufacturer's protocol (Perkin Elmer, Boston, Mass.). IC50 was calculated by fitting the data using XLfit software.

Another series has as its target HSP90α (Homo sapiens, UniProt P07900). The experiment in a line: HSP90α affinity. Type of series: binding.
In another series the test system is MDA231 (breast). The series can be described thus: Cell proliferation assay (ATPlite), MDA231. The series is classed as cell-based. The settings on record: 4 days, read-out: Growth inhibition (IC50).
The next series relates to H1975 (lung). The series can be described thus: Cell proliferation assay (ATPlite), H1975. The series is classed as cell-based. The settings on record: 4 days, read-out: Growth inhibition (IC50). As for the experimental part:
as §1

A further series deals with HCC827 (lung). The series can be described thus: Cell proliferation assay (ATPlite), HCC827. Type of series: cell-based. The following applies: 4 days, read-out: Growth inhibition (IC50). As for the experimental part:
as §1

The next series relates to K562 (leukemia). The experiment in a line: Cell proliferation assay (ATPlite), K562. Type of series: cell-based. The settings on record: 4 days, read-out: Growth inhibition (IC50).
A further series deals with N87 (gastric). The experiment in a line: Cell proliferation assay (ATPlite), N87. The series is classed as cell-based. The following applies: read-out: Growth inhibition (IC50).
Another series has as its system BT474 (breast). The series can be described thus: Cell proliferation assay (ATPlite), BT474. The series is classed as cell-based. The following applies: read-out: Growth inhibition (IC50).
A further series relates to MV4;11 (leukemia). The series can be described thus: Cell proliferation assay (ATPlite), MV4;11. The series is classed as cell-based. The following applies: 4 days, read-out: Growth inhibition (IC50).
A further series relates to MDA-MB468 (breast). The experiment in a line: Cell proliferation assay (ATPlite), MDA-MB468. The settings on record: for IC50: read-out: Growth inhibition (IC50). The series is classed as cell-based.
Series [1] can be described thus: In vitro conversion/stability of prodrug in artificial gastric fluid (pepsin solution, pH 1.1). The following applies: artificial gastric fluid pH 1.1; at 60 minutes. Type of series: in vitro ADME. Here is the method:
(§2) Hydrolysis of prodrug in vivo was estimated by incubating phosphate prodrugs in vitro with mouse small intestine and liver homogenates, mouse plasma, and artificial gastric fluid. Plasma was freshly collected from nude mice. Liver and intestine homogenates were prepared by adding 3 volume of saline to freshly collected mouse tissues and homogenized using glass homogenizer. Gastric fluid was prepared by adding 80 mL of 1M hydrochloric acid to 800 mL of water and then supplementing with 2.0 g of sodium chloride and 3.2 g of pepsin powder. The final volume of the artificial gastric fluid was adjusted with water to 1000 mL (pH=1.1). […] 100 μL samples were collected at 0, 2, 5, 15, 30 and 60 minutes. 5 volumes methanol containing internal standard was added immediately. For samples from gastric fluid incubation, 1 volume of 0.01 M Sodium hydroxide was added before injection into LC/MS/MS. All samples were analyzed by LC/MS/MS to quantitate the concentration of 1a, 1b and the corresponding parent drugs. The concentration of the parent drugs of 1a and 1b was quantitated using standard curve prepared using each vehicle.
(§3) We then evaluate other prodrug conversion in vitro using tissue homogenates and a mimic of gastric fluid (pepsin solution at pH 1.1).

Series [2] is described as follows: Solubility of phosphate prodrugs in organic- and aqueous-based media. Type of series: physicochemical. The settings on record: for solubility: read-out: Maximum observed solubility. Here is the method:
Crystalline phosphate drugs 1a and 1b were tested first in several different organic- and aqueous-based media, including water, PBS, ETOH, DMA, CMC, and PG.
The maximum observed solubilities with small lots of crystalline drug in 4-mL glass clear tubes were: […]

Series [3] can be described thus: In vitro partition between plasma and cells in mouse whole blood. Type of series: in vitro ADME. The settings on record: for Test article concentration in cellular elements / Test article concentration in plasma: mouse whole blood spiked at 5 μg/mL, 37° C.; for Partition of the test articles between plasma and cells: mouse whole blood, 5 μg/mL. Here is the method:
The whole blood was withdrawn from mice via cardio-puncture and placed in EDTA anticoagulant tubes. The test articles were spiked to whole blood at final concentration of 5 μg/mL (at least 2 mL) and incubated at 37° C. 200 μL whole blood was taken at 0 (immediate after incubation), 5 min, 15 min and 30 min and then was centrifuged to separate plasma and cellular elements. Plasma was transferred to clean tubes. 50 μL of plasma and cellular elements were processed by addition of 3 volumes (150 μl) of ice-cold methanol. After centrifugation, the supernatants were subjected to LC-MS/MS analysis of test articles in both plasma and cellular elements.

A short description of series [4]: In vitro conversion/stability of prodrug in plasma. The following applies: mouse plasma; at 60 minutes. Type of series: in vitro ADME. Here is the method:
as §2, §3

The test system of a further series is MCF-7 xenograft tumors. The settings on record: mice bearing MCF-7 xenograft tumors; intraperitoneally, 200 mg/kg; DMSO/EtOH/phosphate-buffered saline 1:1:1; cited from earlier work.
Series [5] can be described thus: Solubility for oral formulation of PU24FCl. Type of series: physicochemical. The settings on record: in our hands. The source says: More recently, other novel non-natural product Hsp90 inhibitors have been reported (e.g. PU3 and CCT018159; see Chiosis et. al. Bioorg. Med. Chem. Lett. 2002, 10, 3555-3564; Vilenchik et. al. Chem. Biol. 2004, 11, 787-797; Chiosis et. al. WO 0236075, 2002; Drysdale et. al. WO 03/055860 A1, 2003; Wright et. al. Chem. Biol. 2004, 11, 775-785; Dymock et. al. Bioorg. Med. Chem. Lett. 2004, 14, 325-328; Dymock et. al. J. Med. Chem. 2005, 48, 4212-4215. Structure of Hsp90 in complex with PU3 pdb code 1UY6, and with PU24FCl: pdb code 1UYF and Clevenger et. al. Org. Lett. 2004, 6, 4459-4462). […] The 8-benzyladenines such as PU3 were designed to adopt the same C-shaped conformation as geldanamycin (Chiosis et. al. Current Cancer Drug Targets, 2003, 3, 371-376) with the adenine ring pointing to the adenine-binding site (hinge region), and the trimethoxybenzene ring emulating the H-bond accepting nature of the quinone ring of geldanamycin. […]

Where [6] appears, read: BT474 (breast), 4 days, cell viability by ATPlite.
Setting [7] is: MDA-MB468 (breast), 4 days, ATPlite.

Converted amounts (≈) assume the structure as drawn. Where two headings read alike, the source gives them in different places.

Usually IC50 stands for the midpoint of a concentration-inhibition curve. In the case of `O=C1OCC/C=C/CC/C=C/C(=N\OCC(=O)N2CCCCC2)Cc2c(Cl)c(O)cc(O)c21` [1a parent], the IC50 was 9 nM in the series on HCT116 (colon); 42 nM with A172(glioblastoma); 7 nM in the series on MDA231 (breast); 25 nM with H1975 (lung); 31 nM with HCC827 (lung); 6 nM with K562 (leukemia). Moreover, the IC50 turned out to be 4 nM in the series with N87 (gastric) (N87 (gastric), 4 days, ATPlite); 7 nM in the series with BT474 (breast) (setting [6]); 3 nM in the series with MV4;11 (leukemia); 9 nM in the series on MDA-MB468 (breast) (setting [7]). The HSP90α affinity at HSP90α is listed as 21 nM.
In the case of `O=C1OCC/C=C/CC/C=C/C(=N\OCC(=O)N2CCCCC2)Cc2cc(O)cc(O)c21` [1b parent], the IC50 with HCT116 (colon) came out at 11 nM; with MDA231 (breast), 2 nM; in the series with K562 (leukemia), 4 nM; in the series with N87 (gastric) (N87 (gastric), 4 days, ATPlite) it was 1 nM; in the series on BT474 (breast) (setting [6]), 2 nM; with MV4;11 (leukemia), 2 nM. Also, the IC50 in the series on MDA-MB468 (breast) (setting [7]) was 2 nM. In addition, at HSP90α, the HSP90α affinity came to 15 nM.
The term solubility denotes how much of the substance goes into solution per volume. On to `O=C1OCC/C=C/CC/C=C/C(=N\OCC(=O)N2CCCCC2)Cc2c(Cl)c(OP(=O)(O)O)cc(O)c21` [Compound 1a], for which the “Prodrug intact in artificial gastric fluid” value in [1] is recorded as “about 70%”. Besides, the figures for the solubility in [2] (0.5% CMC/0.1% Tween-20/0.45% NaCl) and in [2] (PBS) were 87.5 mg/mL (≈ 157 mM) and 55 mg/mL (≈ 98.8 mM), respectively. Moreover, in series [2], the “Solubility in water and PBS compared to the parent drugs” value was “very soluble”. Further, the “Test article concentration in cellular elements” value in series [3] (0 min) was 1893.93 ng/mL; in series [3] (5 min) it was 1632.69 ng/mL; in series [3] (15 min), 1655.20 ng/mL; in [3] (30 min) it was 1956.15 ng/mL. Besides, the “Test article concentration in plasma” value in series [3] (0 min) came to 7988.91 ng/mL; in series [3] (5 min), 7654.94 ng/mL; in series [3] (15 min) it was 8123.27 ng/mL; in series [3] (30 min), 9680.38 ng/mL. Further, the “Partition of the test articles between plasma and cells” value in [3] is “The concentration of 1a and 1b in plasma is larger than the nominated concentration in whole blood (5 μg/mL), which indicated that the partition of the test articles was mainly in plasma”. For the same compound, in series [4], the “Prodrug intact in plasma” value was “about 90%”.
For the compound `O=C1OCC/C=C/CC/C=C/C(=N\OCC(=O)N2CCCCC2)Cc2cc(OP(=O)(O)O)cc(O)c21` [Compound 1b], at HSP90α, the “Binding to Hsp90 in vitro” value is given as “does not bind”. Further, on HSP90α, the HSP90α affinity is listed as >10 000 nM. In addition, the “Prodrug intact in artificial gastric fluid” value in series [1] is “about 70%”. For the same compound, in [2], the “Solubility in water and PBS compared to the parent drugs” value is listed as “very soluble”. In addition, the IC50 stood at 19 nM in the series on N87 (gastric) (96 h); 14 nM with BT474 (breast) (Homo sapiens, BT-474, 96 h); 37 nM with MDA-MB468 (breast) (Homo sapiens, MDA-MB-468, 96 h). Further, the “Test article concentration in cellular elements” value in series [3] (0 min) is on record as 1999.60 ng/mL; in series [3] (5 min), 1364.01 ng/mL; in [3] (15 min), 1070.97 ng/mL; in series [3] (30 min), 1237.82 ng/mL. In addition, the “Test article concentration in plasma” value was 7119.50 ng/mL in [3] (0 min), 7833.27 ng/mL in series [3] (5 min), 7672.71 ng/mL in series [3] (15 min) and 7409.47 ng/mL in series [3] (30 min). In addition, the “Partition of the test articles between plasma and cells” value in series [3] is “The concentration of 1a and 1b in plasma is larger than the nominated concentration in whole blood (5 μg/mL), which indicated that the partition of the test articles was mainly in plasma”. For the same compound, in [4], the “Prodrug intact in plasma” value is recorded as “about 90%”.
`C=CCNC1=C2C[C@@H](C)C[C@H](OC)[C@H](O)[C@@H](C)/C=C(\C)[C@H](OC(N)=O)[C@@H](OC)/C=C\C=C(/C)C(=O)NC(=CC1=O)C2=O` [Compound 17AAG, 17-allylamino-17-demethoxygeldanamycin, reference compound]: the IC50 in the series on H1975 (lung) was 35 nM; in the series on HCC827 (lung) it was 56 nM; in the series with K562 (leukemia), 48 nM; in the series on N87 (gastric) (N87 (gastric), 4 days, ATPlite), 1 nM; with BT474 (breast) (setting [6]) it was 5 nM; in the series with MV4;11 (leukemia) it was 11 nM. Moreover, in the series with MDA-MB468 (breast) (setting [7]), the IC50 is 780 nM. Also, the “Anti-proliferative activity against MDA-MB468” value in the series with MDA-MB468 (breast) (MDA-MB468) was “significantly less sensitive”.
In the case of `C#CCCCn1c(Cc2cc(OC)c(OC)c(OC)c2Cl)nc2c(N)nc(F)nc21` [PU24FCl], in the series on MCF-7 xenograft tumors, the “Tumor growth” value is on record as “significantly repressed tumor growth”. For the same compound, the “Solubility for oral formulation and delivery” value in series [5] was “too insoluble”.
